{"source": "patent US9023831B2", "about": "“Methods and compositions of inhibiting complement and cellular activation with Dextran Sulfate” (Novelmed Therapeutics, Inc., priority 2007, dated 2015)", "key": {"[1]": {"tested_on": "platelets (CD62P staining)", "test": "Platelet activation (CD62P flow cytometry) after tubing loop", "type": "cell-based, human", "conditions": "Aspirin 100 μg/ml added to NM3014 prior to tubing loop rotation", "experimental": "It was expected that platelet activation would also be inhibited. […] The inhibition of platelet activation was measured using flow cytometry following CD62P staining of activated platelets.\nIt was expected that platelet activation will also be inhibited. […] The inhibition of platelet activation was measured using flow cytometry following CD62P staining of activated platelets.\nWhile platelets bear C3a receptors, it is not clear how platelets were being activated. In an effort to downregulate platelet activation, we performed an experiment in which Dextran Sulfate was utilized in combination with aspirin. […] These surprising results present Dextran Sulfate as a lead complement inhibitory drug that down regulates both complement and cellular activation in heparinized whole human blood. Shown in FIGS. 10d and 10e are results from this study.\nFor CD62P labeling of platelets, 100 μl of diluted blood collected from the circuits were immediately incubated with 20 μl of PE-anti-CD62P antibody (Becton Dickinson) for 20 minutes at room temperature in a polypropylene tube, Then the mixture was treated with FACS Lysing Solution as described above. The microcentrifuge tubes were centrifuged at 12000. g for 5 minutes. The platelets were washed in PBS/BSA 01%, fixed in 1% paraformaldehyde and then analyzed as described above. For double labeling to concomitantly identify the platelet population, 5 μl of FITC-anti-CD61 antibody were added for incubation together with PE-anti-CD62P antibody.\nFor flow cytometry measurement, the PMN (containing mainly neutrophils) and platelet populations were identified by live gating based on forward- versus side-scatter parameters and specific staining with FITC-anti-CD15 antibody and FITC-anti-CD61 antibody, respectively. The background staining was gated using isotype-matched labeled antibodies. The intensity of expression of CD11b and CD62P was represented by mean fluorescence intensity (MFI)."}, "[2]": {"tested_on": "arthritic Lewis rats", "test": "Joint inflammation and bone destruction in Rat-AIA (CFA-induced arthritis)", "type": "in vivo", "experimental": "Lewis male rats were used to examine the effect of Dextran Sulfate combination with aggrastat (molecular weight 40,000 and 5,000) for the treatment of arthritis. Arthritis was induced in adult male Lewis rats (200-225 gm) by an intradermal injection of complete Freund's adjuvant (CFA) at the base of the tail on the dorsal side. The CFA (100 mg dried and heat killed Mycobacterium butyricum (Difco, Detroit, Mich.) emulsified in 10 ml sterile mineral oil) was prepared by grinding the bacteria powder with a mortar and pestle until the bacterial cell wall turned from a light beige to an eggshell white powder. The mineral oil was then slowly mixed into the bacterial cell wall using the mortar and pestle. All animals in each experiment were challenged with the same preparation of adjuvant and nearly 100% of the animals developed arthritis. Dextran Sulfate was obtained from Sigma Aldrich Corp and Aggrastat was purchased from the pharmacy. Dextran Sulfate was dissolved in aggrastat. The drug treatment started on day 10 post-immunization, the time of disease onset, and continued until sacrifice. The dose of Dextran Sulfate was 20 & 10 mg/Kg/per day per 150-200 g rat. The inflammatory response was assesed by the measurement of paw volume. Paw volume appears to be very consistent and gave slow increasing arthritis over time. Paw volumes were measured every day until sacrifice using Plethysmometer (IITC). After the sacrifice/euthanasia, limbs were removed and processed for;\na) histological evaluations: Only three animals were used per group. Sections were stained with Eosin and hematoxylin to identify various regions within the inflamed limb. Untreated controls have intact cartilage layer and the bone (Score 0) and clear synovium without pannus. Arthritic controls had no defined cartilage bone, and have pannus layer and significant inflammation (Score 5). Enbrel was used as positive control. […] We gave a score of 2.\nb) Paw Swelling: Each paw was measured for water displacement using plethysmometer. Paw volume was measured every day.\nContinuous treatment of Dextran Sulfate therapies from disease onset affected paw swelling in arthritic rats. All adjuvant-challenged rats developed AA between days 10-12. […] While inflammation was decreased in these treatment groups, we observed a greater effect for these drugs in prevention of bone and cartilage destruction."}}}
{"compound": "CC(=O)Oc1ccccc1C(=O)O", "note": "[Aspirin, reference compound]", "values": [{"measurement": "inhibition of NM3014 induced platelet activation", "setting": "[1]", "value": "inhibition of platelet activation much below the control levels"}, {"measurement": "inhibition of NM3014 induced platelet activation", "setting": "[1]; listed as aspirin", "value": "downregulated activation of platelets much below control levels"}]}
{"compound": "Dextran Sulfate [Dextran Sulfate 5,000]", "values": [{"measurement": "paw swelling (paw volume, plethysmometer)", "setting": "[2]; with Aggrastat, compared to untreated controls", "value": "decreased the inflammation"}]}
{"compound": "Enbrel [reference compound]", "values": [{"measurement": "histological score", "setting": "[2]; Score 0 untreated controls, Score 5 arthritic controls", "value": 2}]}
